Article PMC3237907 (Nano letters, 2011)

Target: T1, ParM mutant (His6/K33A/D63C/T174A/T175N/D224C/C287A), TMR-labelled ADP sensor (Escherichia coli, UniProt P11904, C287A/D224C/D63C/K33A/T174A/T175N)
T1 sequence (P11904 1-320 K33A/D63C/T174A/T175N/D224C/C287A): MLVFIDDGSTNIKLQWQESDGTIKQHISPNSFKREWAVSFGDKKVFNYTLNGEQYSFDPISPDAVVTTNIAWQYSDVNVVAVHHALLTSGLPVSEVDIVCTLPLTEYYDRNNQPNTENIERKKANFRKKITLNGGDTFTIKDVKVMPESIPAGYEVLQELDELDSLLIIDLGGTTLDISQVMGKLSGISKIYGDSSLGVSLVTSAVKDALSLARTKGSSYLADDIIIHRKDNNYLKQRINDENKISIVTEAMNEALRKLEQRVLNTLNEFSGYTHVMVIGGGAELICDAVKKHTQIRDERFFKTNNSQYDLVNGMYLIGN
Test: single-molecule TIRF, TMR self-quenching
Assay type: binding

## Nc1ncnc2c1ncn2[C@@H]1O[C@H](COP(=O)(O)OP(=O)(O)O)[C@@H](O)[C@H]1O [ADP]
  Kd: 20 ± 3 µM
